US5354862A, “Preparation and the use of halopropargylated cyclic quaternary ammonium compounds as antimicrobial agents” (Rohm and Haas Company, priority 1993, dated 1994)
Like-named read-outs stand apart in the source and are kept apart here.

Legend:
Test in all cases: Broth two-fold serial dilution MIC test
Staphylococcus aureus = assay type: cell-based, Staphylococcus aureus (ATCC 6538); settings: Table 2, Saur
Procedure, shortened: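 Broth two-fold serial dilution from 500 ppm down to 0.25 ppm, compound delivered from acetone/methanol/water stock, inoculated with standardized cell suspension and incubated at an organism-appropriate temperature. MIC is the lowest concentration giving complete growth inhibition.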

Pseudomonas aeruginosa = assay type: cell-based, Pseudomonas aeruginosa (ATCC 15442); settings: Table 2, Psae
Procedure, shortened: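 Broth two-fold serial dilution MIC (500 to 0.25 ppm) was run against Pseudomonas aeruginosa, with compound from 1% stock in acetone/methanol/water 5:3:2. Vessels inoculated with standardized broth-grown cells were incubated, then scored for growth. MIC is the lowest concentration giving complete growth inhibition.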

Aspergillus niger = assay type: cell-based, Aspergillus niger (ATCC 6275); settings: Table 2, Anig, TSB media
Procedure, shortened: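 Two-fold broth serial dilution from 500 ppm down to 0.25 ppm, compound stock in acetone/methanol/water 5:3:2. Vessels inoculated with standardized spore suspension harvested from agar slants, incubated at a species-appropriate temperature, then scored for growth/no growth. MIC is the lowest concentration giving complete growth inhibition.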

Escherichia coli = assay type: cell-based, Escherichia coli (ATCC 11229); settings: Table 2, Ecol
Procedure, shortened: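 Broth two-fold serial dilutions ran from 500 down to 0.25 ppm, prepared from a stock in acetone/methanol/water (5:3:2). Each tube received a standardized bacterial suspension and was incubated at a temperature suited to the species. MIC is the lowest concentration giving complete growth inhibition.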

[1] = Staphylococcus aureus, M9G media, read-out: MIC
[2] = Staphylococcus aureus, TSB media, read-out: MIC
[3] = Escherichia coli, M9G media, read-out: MIC
[4] = Pseudomonas aeruginosa, M9G media, read-out: MIC
[5] = Pseudomonas aeruginosa, TSB media, read-out: MIC
[6] = Aspergillus niger, read-out: MIC
[7] = Escherichia coli, TSB media, read-out: MIC

Compound | MIC (Staphylococcus aureus; M9G media) | MIC (Staphylococcus aureus; TSB media) | MIC (Pseudomonas aeruginosa; M9G media) | MIC (Pseudomonas aeruginosa; TSB media) | MIC (Aspergillus niger) | MIC (Escherichia coli; M9G media) | MIC (Escherichia coli; TSB media) | MIC (Staphylococcus aureus; [1]) | MIC (Staphylococcus aureus; [2]) | MIC (Escherichia coli; [3]) | MIC (Pseudomonas aeruginosa; [4]) | MIC (Pseudomonas aeruginosa; [5]) | MIC (Aspergillus niger; [6]) | MIC (Escherichia coli; [7])
IC#CC[N+]1(Cc2ccccc2)CCOCC1 [Compound 74, 4-benzyl-4-(3-iodopropargyl)-morpholinium methanesulfonate] | 125 ppm | 250 ppm | > 500 ppm | > 500 ppm | 64 ppm | 64 ppm | 125 ppm |  |  |  |  |  |  | 
CCCCCCCCCCCCCC[N+]1(CC#CI)CCOCC1 [Compound 28, 4-tetradecyl-4-(3-iodopropargyl)-morpholinium 4-methylbenzenesulfonate] |  | 0.25 ppm | 4 ppm | 4 ppm | 8 ppm | 1 ppm | 2 ppm | 0.25 µg/mL |  |  |  |  |  | 
CCCCCCCCCCOC(=O)C[N+]1(CC#CI)CCCC1 [Compound 65, 1-(decyioxycarbonyl)methyl-1-(3-iodopropargyl)-pyrrolidinium 4methylbenzenesulfonate] |  |  |  |  |  |  |  | 2 µg/mL | 1 µg/mL | 2 µg/mL | 64 µg/mL | 125 µg/mL | 16 µg/mL | 4 µg/mL
CCCCCCCCCCCCCCCC[N+]1(CC#CI)CCOCC1 [Compound 50, 4-hexadecyl-4-(3-iodopropargyl)-morpholinium benzenesulfonate] | < 0.25 ppm | 0.5 ppm | 8 ppm | 8 ppm | 0.5 ppm | 1 ppm | 1 ppm |  |  |  |  |  |  | 
CCCC[N+]1(CC#CI)CCCC1 [Compound 9, 1-butyl-1-(3-iodopropargyl)-pyrrolidinium 4-methylbenzenesulfonate] |  |  |  |  |  | 500 ppm | 250 ppm | 250 µg/mL | 250 µg/mL |  | 500 µg/mL | > 500 µg/mL | 500 µg/mL | 
CCCCCCCCCCCCCCCC[N+]1(CC#CI)CC(C)OC(C)C1 (stereo not drawn) [Compound 48, 4-hexadecyl-4-(3-iodopropargyl)-2,6-dimethylmorpholinium methanesulfonate] | < 0.25 ppm | 0.5 ppm | 8 ppm | 8 ppm | 1 ppm | 2 ppm |  |  |  |  |  |  |  | 
CCCCCCCCCCCCCC[N+]1(CC#CI)CCOCC1 [Compound 71, 4-tetradecyl-4-(3-iodopropargyl)-morpholinium bromide] | 0.25 ppm | 0.25 ppm | 8 ppm | 32 ppm | 4 ppm | 1 ppm | 4 ppm |  |  |  |  |  |  | 
CCCCCCCCCCCCCC[N+]1(CC#CI)CC(C)OC(C)C1 (stereo not drawn) [Compound 43, 4-tetradecyl-4-(3-iodopropargyl)-2,6-dimethylmorpholinium 4-methylbenzenesulfonate] |  |  |  |  |  |  |  | < 0.25 µg/mL | 0.5 µg/mL | < 0.25 µg/mL | 2 µg/mL | 4 µg/mL | 1 µg/mL | 0.5 µg/mL
CCCCCC[N+]1(CC#CI)CCCC1 [Compound 14, 1-hexyl-1-(3-iodopropargyl)-pyrrolidinium 4-methylbenzenesulfonate] |  |  |  |  |  |  |  | 16 µg/mL | 16 µg/mL | 250 µg/mL | 500 µg/mL | 500 µg/mL | 250 µg/mL | 125 µg/mL
C[N+]1(CC#CI)CCOCC1 [Compound 29, 4-methyl-4-(3-iodopropargl)-morpholinium 4-methylbenzenesulfonate] |  |  |  |  |  |  |  | 500 µg/mL | 500 µg/mL | 250 µg/mL | 500 µg/mL | 500 µg/mL | 500 µg/mL | 125 µg/mL
OCCCCCCCCCCC[N+]1(CC#CI)CCCCC1 [Compound 19, 1-(11-hydroxyundecyl)-1-(3-iodopropargyl)-piperidinium 4-methylbenzenesulfonate] |  |  |  |  |  |  |  | 2 µg/mL | 16 µg/mL |  | 250 µg/mL | 250 µg/mL | 32 µg/mL | 32 µg/mL
OCCCCCCCCC[N+]1(CC#CI)CCCC1 [Compound 5, 1-(9-hydroxynonyl)-1-(3-iodopropargyl)-pyrrolidinium 4-methylbenzenesulfonate] |  |  |  |  |  |  |  | 63 µg/mL | 63 µg/mL | > 500 µg/mL | > 500 µg/mL | > 500 µg/mL | 250 µg/mL | > 500 µg/mL
CCCCCCCC[N+]1(CC#CI)CCCC1 [Compound 12, 1-octyl-1-(3-iodopropargyl)-pyrrolidinium 4-methylbenzenesulfonate] |  |  |  |  |  |  |  | 2 µg/mL | 16 µg/mL | 32 µg/mL | 500 µg/mL | > 500 µg/mL | 16 µg/mL | 63 µg/mL
CCCCCCCCCCOC(=O)C[N+]1(CC#CI)CCOCC1 [Compound 67, 4-(decyloxycarbonyl)methyl-4-(3-iodopropargyl)-morpholinium benzenesulfonate] | 0.5 ppm | 8 ppm | 125 ppm | 250 ppm | 125 ppm | 2 ppm | 8 ppm |  |  |  |  |  |  | 
OCCCCCCCCCCCC[N+]1(CC#CI)CCCCCC1 [Compound 27, 1-(12-hydroxydodecyl)-1-(3-iodopropargyl)-hexamethyleneiminium 4-methylbenzenesulfonate] |  |  |  |  |  |  |  | 16 µg/mL | 32 µg/mL |  | > 250 µg/mL | > 250 µg/mL | 32 µg/mL | 250 µg/mL
CCCCCCCCCCCCCC[N+]1(CC#CI)CCCCC1C (stereo not drawn) [Compound 55, 1-(tetradecyl)-1-(3-iodopropargyl)-2-methylpiperidinium methanesulfonate] | 1 ppm | 8 ppm | 125 ppm | 125 ppm | 1 ppm | 4 ppm | 16 ppm |  |  |  |  |  |  | 

Results, then the molecule that gave them:

MIC (Staphylococcus aureus; M9G media) | MIC (Staphylococcus aureus; TSB media) | MIC (Pseudomonas aeruginosa; M9G media) | MIC (Pseudomonas aeruginosa; TSB media) | MIC (Aspergillus niger) | MIC (Escherichia coli; M9G media) | MIC (Escherichia coli; TSB media) | MIC (Staphylococcus aureus; [1]) | MIC (Staphylococcus aureus; [2]) | MIC (Escherichia coli; [3]) | MIC (Pseudomonas aeruginosa; [4]) | MIC (Pseudomonas aeruginosa; [5]) | MIC (Aspergillus niger; [6]) | MIC (Escherichia coli; [7]) | Compound
 |  | 4 ppm | 8 ppm | 1 ppm |  | 2 ppm | < 0.25 µg/mL | < 0.25 µg/mL | 4 µg/mL |  |  |  |  | CCCCCCCCCCCCCCCC[N+]1(CC#CI)CCCC1 [Compound 7, 1-hexadecyl-1-(3-iodopropargyl)-pyrrolidinium 4-methylbenzenesulfonate]
0.25 ppm | 0.25 ppm | 16 ppm | 64 ppm | 4 ppm | 2 ppm | 4 ppm |  |  |  |  |  |  |  | CCCCCCCCCCCCCC[N+]1(CC#CI)CCCC1 [Compound 87, 1.-tetradecyl-1-(3-iodopropargyl)-pyrrolidinium n-butylsulfonate]
 | 1 ppm |  | 16 ppm |  |  | 4 ppm | 0.5 µg/mL |  | 2 µg/mL | 16 µg/mL |  | 1 µg/mL |  | CCCCCCCCCCCCC[N+]1(CC#CI)CCCC1 [Compound 8, 1-tridecyl-1-(3-iodopropargyl)-pyrrolidinium 4-methylbenzenesulfonate]
0.5 ppm | 0.5 ppm | 63 ppm | 125 ppm | 0.25 ppm | 2 ppm | 16 ppm |  |  |  |  |  |  |  | CCCCCCCCCCCC[N+]1(CC#CI)CCCC1 [Compound 37, 1-dodecyl-1-(3-iodopropargyl)-pyrrolidinium methanesulfonate]
1 ppm | 2 ppm | 63 ppm | 250 ppm | 16 ppm | 2 ppm | 16 ppm |  |  |  |  |  |  |  | CCCCCCCCCCCCCCCC[N+]1(CC#CI)CCCCC1 [Compound 60, 1-hexadecyl-1-(3-iodopropargyl)-piperidinium benzenesulfonate]
 |  |  |  |  |  |  | 8 µg/mL | 4 µg/mL | 8 µg/mL | 8 µg/mL | 8 µg/mL | 8 µg/mL | 16 µg/mL | CCCCCCCCCCCCCCCC[N+]1(CC#CI)CCCCCC1 [Compound 44, 1-hexadecyl-1-(3-iodopropargyl)-hexamethyleneiminium 4-methylbenzenesulfonate]
< 0.25 ppm | < 0.25 ppm | 63 ppm | 63 ppm | 0.5 ppm | 1 ppm | 2 ppm |  |  |  |  |  |  |  | CCCCCCCCCCCCCC[N+]1(CC#CI)CCCC1 [Compound 39, 1-tetradecyl-1-(3-iodopropargyl)-pyrrolidinium methanesulfonate]
0.5 ppm | < 0.25 ppm | 32 ppm | 32 ppm | 1 ppm | 1 ppm | 16 ppm |  |  |  |  |  |  |  | CCCCCCCCCCCCC[N+]1(CC#CI)CCCC1 [Compound 31, 1-tridecyl-1-(3-iodopropargyl)-pyrrolidinium benzenesulfonate]
